Results on five molecules are retold here after article PMC11355573, “A New Renieramycin T Right-Half Analog as a Small Molecule Degrader of STAT3” (Marine Drugs, 2024).

For assay [1], the system named is H460 cells. Particulars: cited from earlier work.
Assay [2] relates to H292 cells. Briefly: MTT cell viability assay (cytotoxicity). Format: cell-based, human. Particulars: read-out: IC50 ± SD H292. On the procedure: (§1) NSCLCs H292 and H460 were treated with various concentrations of derivatives of the RT right-half analog for 24 h. […] However, the IC50 values for DH_17, DH_20, DH_23, and DH_26 in H460 cells were greater than 100 μM. TM-(−)-18 was identified as a potent compound in a previous study. The structure of TM-(−)-18 was present in Figure 1A. […] To assess the selectivity of DH_28, DH_30, DH_31, and TM-(−)-18 in lung cancer cells, non-tumorigenic epithelial cell lines derived from human bronchial epithelial cells (BEAS-2B) were treated with DH_28, DH_30, DH_31, and TM-(−)-18 at various concentrations for 24 h.
(§2) MTT assay was conducted to ascertain cell viability in the presence of DH_17, DH_20, DH_23, DH_26, DH_28, DH_30, DH_31, or TM-(–)-18. H292 and H460 cells (1.0 × 10^4 cells per well) were seeded in 96-well plates. Following overnight incubation, the cells were treated with different concentrations of RT right–half analogs (0–100 μM) for 24 h at 37 °C. Subsequently, cell viability was assessed using MTT assay, following the manufacturers’ protocols. The optical density was measured at 570 nm using a CLARIOStar microplate reader (BMG Labtech, Ortenberg, Germany).
For orientation: Tetrazolium dyes change colour on reduction, which living cells bring about.

For assay [3], the system named is H460 cells. Briefly: MTT cell viability assay (cytotoxicity). Format: cell-based, human. Particulars: read-out: IC50 ± SD H460. On the procedure:
as §1, §2

For a further assay, the system named is BEAS-2B cells. In words: MTT assay in non-tumorigenic bronchial epithelial cells (selectivity). As to conditions: Homo sapiens, 24 h, read-out: BEAS-2B IC50 ± SD. In kind it is cell-based. On the procedure:
as §1
Figure 2 The effect of RT right-half analogs on cytotoxicity in NSCLC and human normal lung epithelial (BEAS-2B) cell lines and apoptotic cell death in NSCLC cells. (A) NSCLC H292 and H460 cells were treated with derivatives of RT right-half analogs for 24 h and analyzed using MTT assay to assess cytotoxicity. (B) IC50 values for H292 and H460 cell lines were calculated. (C) BEAS-2B cells were treated with DH_28, DH_30, DH_31, and TM-(−)-18 for 24 h. The cytotoxic effects were evaluated using an MTT assay, and the IC50 values for BEAS-2B cells were determined. (D) H292 and H460 cells were seeded and treated with 0–10 μM of DH_28, DH_30, and DH_31 for 24 h. Hoechst 33342 and PI were used to stain the cell nuclei. Images were obtained under a fluorescence microscope. (E) The percentages of cell death were calculated based on the stained images in H292 and H460 cells. […] TEXT PRINTED IN THE PICTURE: (B) DH_17: IC50 ± SD (μM) H292: 20.50 ± 3.69; IC50 ± SD (μM) H460: > 100 | (B) DH_20: IC50 ± SD (μM) H292: 21.46 ± 3.77; IC50 ± SD (μM) H460: > 100 | (B) DH_23: IC50 ± SD (μM) H292: 17.50 ± 3.08; IC50 ± SD (μM) H460: > 100 | (B) DH_26: IC50 ± SD (μM) H292: 7.18 ± 2.39; IC50 ± SD (μM) H460: > 100 | (B) DH_28: IC50 ± SD (μM) H292: 9.56 ± 1.87; IC50 ± SD (μM) H460: 11.48 ± 1.87 | (B) DH_30: IC50 ± SD (μM) H292: 7.80 ± 2.30; IC50 ± SD (μM) H460: 4.51 ± 0.78 | (B) DH_31: IC50 ± SD (μM) H292: 5.54 ± 1.04; IC50 ± SD (μM) H460: 2.90 ± 0.58 | (B) TM-(–)-18: IC50 ± SD (μM) H292: > 100; IC50 ± SD (μM) H460: 7.89 ± 1.27 | (C) DH_28: BEAS-2B IC50 ± SD (μM): 16.46 ± 2.11 | (C) DH_30: BEAS-2B IC50 ± SD (μM): 5.50 ± 1.70 | (C) DH_31: BEAS-2B IC50 ± SD (μM): 6.51 ± 1.40 | (C) TM-(–)-18: BEAS-2B IC50 ± SD (μM): 7.25 ± 1.25 DOUBTS OF THE COPYIST ABOUT THIS PICTURE: Panel C, DH_28, IC50: small print, 16.46 ± 2.11 is the best reading; 6 could be 8 / Panel C, DH_30, IC50: small print, 5.50 ± 1.70 is the best reading; 5 could be 6 / Panel C, DH_31, IC50: small print, 6.51 ± 1.40 is the best reading; 6 could be 8 or 5 / Panel C, TM-(–)-18, IC50: small print, 7.25 ± 1.25 is the best reading

The test system of assay [4] is H292 cells. Format: cell-based. Particulars: H292, 10 µM. On the procedure:
(§3) Apoptosis is a crucial mechanism of cell death induced by anticancer drugs. We further analyzed the apoptosis induction effect of the potent small molecules, namely DH_28, DH_30, and DH_31. Nuclear morphology detected by the staining with nucleus-specific fluorescence dye Hoechst 33342 and cell-impermeable PI for necrotic detection was performed. Morphologic changes by means of condensed and/or fragmented nuclei were observed after 24 h of treatment (Figure 2D). […] Therefore, DH_31 was selected for further experiments.
(§4) Figure 2 The effect of RT right-half analogs on cytotoxicity in NSCLC and human normal lung epithelial (BEAS-2B) cell lines and apoptotic cell death in NSCLC cells. (A) NSCLC H292 and H460 cells were treated with derivatives of RT right-half analogs for 24 h and analyzed using MTT assay to assess cytotoxicity. (B) IC50 values for H292 and H460 cell lines were calculated. (C) BEAS-2B cells were treated with DH_28, DH_30, DH_31, and TM-(−)-18 for 24 h. The cytotoxic effects were evaluated using an MTT assay, and the IC50 values for BEAS-2B cells were determined. (D) H292 and H460 cells were seeded and treated with 0–10 μM of DH_28, DH_30, and DH_31 for 24 h. Hoechst 33342 and PI were used to stain the cell nuclei. Images were obtained under a fluorescence microscope. (E) The percentages of cell death were calculated based on the stained images in H292 and H460 cells. Data represent the mean ± SD (n = 3). *, **, and *** indicate a statistically significant difference between the treated and the untreated cells at p < 0.05, p < 0.01, and p < 0.001, respectively. TEXT PRINTED IN THE PICTURE: (B) DH_17: IC50 ± SD (μM) H292: 20.50 ± 3.69; IC50 ± SD (μM) H460: > 100 | (B) DH_20: IC50 ± SD (μM) H292: 21.46 ± 3.77; IC50 ± SD (μM) H460: > 100 | (B) DH_23: IC50 ± SD (μM) H292: 17.50 ± 3.08; IC50 ± SD (μM) H460: > 100 | (B) DH_26: IC50 ± SD (μM) H292: 7.18 ± 2.39; IC50 ± SD (μM) H460: > 100 | (B) DH_28: IC50 ± SD (μM) H292: 9.56 ± 1.87; IC50 ± SD (μM) H460: 11.48 ± 1.87 | (B) DH_30: IC50 ± SD (μM) H292: 7.80 ± 2.30; IC50 ± SD (μM) H460: 4.51 ± 0.78 | (B) DH_31: IC50 ± SD (μM) H292: 5.54 ± 1.04; IC50 ± SD (μM) H460: 2.90 ± 0.58 | (B) TM-(–)-18: IC50 ± SD (μM) H292: > 100; IC50 ± SD (μM) H460: 7.89 ± 1.27 | (C) DH_28: BEAS-2B IC50 ± SD (μM): 16.46 ± 2.11 | (C) DH_30: BEAS-2B IC50 ± SD (μM): 5.50 ± 1.70 | (C) DH_31: BEAS-2B IC50 ± SD (μM): 6.51 ± 1.40 | (C) TM-(–)-18: BEAS-2B IC50 ± SD (μM): 7.25 ± 1.25 DOUBTS OF THE COPYIST ABOUT THIS PICTURE: Panel C, DH_28, IC50: small print, 16.46 ± 2.11 is the best reading; 6 could be 8 / Panel C, DH_30, IC50: small print, 5.50 ± 1.70 is the best reading; 5 could be 6 / Panel C, DH_31, IC50: small print, 6.51 ± 1.40 is the best reading; 6 could be 8 or 5 / Panel C, TM-(–)-18, IC50: small print, 7.25 ± 1.25 is the best reading

For assay [5], the system named is H460 cells. Format: cell-based. Particulars: H460, 10 µM, 24 h. On the procedure: as §3, §4

Like-named read-outs stand apart in the source and are kept apart here.

Take 22-O-(N-Boc-L-glycine) ester of RM: in the assay with H460 cells [1], the H460 cell motility result was “inhibited”.
By IC50 is commonly meant the concentration needed to halve the response being measured. With `COc1c(C)cc2c(c1O)[C@@H]1CN(Cc3cccnc3)[C@@H](C#N)[C@H](C2)N1C` [DH_20, (1R,4R,5S)-10-hydroxy-9-methoxy-8,11-dimethyl-3-(pyridin-3-ylmethyl)-1,2,3,4,5,6-hexahydro-1,5-epiminobenzo[d]azocine-4-carbonitrile], the IC50 was 21.5 ± 3.77 µM in the assay with H292 cells [2] (Homo sapiens, NCI-H292, 24 h) and > 100 µM in the assay on H460 cells [3] (Homo sapiens, NCI-H460, 24 h).
On the same counts, the results for `COc1c(C)cc2c(c1O)[C@@H]1CN(Cc3cncs3)[C@@H](C#N)[C@H](C2)N1C` [DH_26, (1R,4R,5S)-10-hydroxy-9-methoxy-8,11-dimethyl-3-(thiazol-5-ylmethyl)-1,2,3,4,5,6-hexahydro-1,5-epiminobenzo[d]azocine-4-carbonitrile] are 7.18 ± 2.39 µM and > 100 µM.
`COc1c(C)cc2c(c1O)[C@@H]1CN(Cc3cccc4ccccc34)[C@@H](C#N)[C@H](C2)N1C` [DH_28, (1R,4R,5S)-10-hydroxy-9-methoxy-8,11-dimethyl-3-(naphthalen-1-ylmethyl)-1,2,3,4,5,6-hexahydro-1,5-epiminobenzo[d]azocine-4-carbonitrile]: the 50% inhibitory concentration (IC50) is < 15 µM with H292 cells [2] (24 h); 9.56 ± 1.87 µM in the assay on H292 cells [2] (Homo sapiens, NCI-H292, 24 h); < 15 µM in the assay on H460 cells [3] (24 h); 11.5 ± 1.87 µM in the assay with H460 cells [3] (Homo sapiens, NCI-H460, 24 h); 16.5 ± 2.11 µM with BEAS-2B cells. For the same molecule, in the assay with H292 cells [4] (24 h), the apoptosis result was “significant apoptosis”. For the same molecule, the results for the necrosis entry in the assay with H292 cells [4] (24 h (p < 0.001)) and with H460 cells [5] were “Necrosis was detected” and “significant necrosis”, respectively. The apoptotic cell death entry in the assay with H460 cells [5] is “significant apoptotic cell death”.
With `COc1c(C)cc2c(c1O)[C@@H]1CN(Cc3ccccn3)[C@@H](C#N)[C@H](C2)N1C` [DH_17, (1R,4R,5S)-10-hydroxy-9-methoxy-8,11-dimethyl-3-(pyridin-2-ylmethyl)-1,2,3,4,5,6-hexahydro-1,5-epiminobenzo[d]azocine-4-carbonitrile], the IC50 in the assay on H292 cells [2] (Homo sapiens, NCI-H292, 24 h) was 20.5 ± 3.69 µM; in the assay with H460 cells [3] (Homo sapiens, NCI-H460, 24 h), > 100 µM.
